Test results published in ChEMBL document CHEMBL6121008, “New series of 3-pyridyl-1,3-thiazoles: In vitro and in vivo anti-Trypanosomatidae profile, in vitro and in silico mechanism of action approach” (Eur J Med Chem, 2025).
Active and inactive are the calls of the source. The rule behind the calls is not given here.

Columns and labels:
Leishmania amazonensis [1] = experiment: Antiparasitic activity against Leishmania amazonensis WHOM/00 LTB 0016 promastigote expressing Escherichia coli beta-galactosidase assessed as reduction in parasitic growth using CPRG as substrate preincubated with compound for 72 hrs followed by substrate addition and measured after 10 mins by Spectrophotometric analysis; format: functional, organism-based
Cell membrane = experiment: Induction of cell membrane damage in trypomastigote form of Trypanosoma cruzi Y assessed as decrease in red fluorescence intensity incubated for 24 hrs by acridine orange staining based flow cytometric analysis; format: subcellular
Mitochondrial membrane = experiment: Induction of mitochondrial membrane hyperpolarization in trypomastigote form of Trypanosoma cruzi Y at IC50 incubated for 24 hrs by Rhodamine 123 staining based flow cytometric analysis; format: cell membranes
Trypanosoma cruzi [2] = experiment: Antiparasitic activity against Trypanosoma cruzi Y trypomastigotes infected in male Swiss mouse assessed as reduction in parasitemia at 100 mg/kg/day, po pre-infected with parasite followed by compound addition and measured at 1 to 5 days post-infection by microscopic analysis; format: functional, organism-based; conditions: time 1-5 day
Trypanosoma cruzi [3] = experiment: Antiparasitic activity against amastigote form of Trypanosoma cruzi Tulahuen expressing Escherichia coli beta-galactosidase infected in mouse L929 cells assessed as reduction in parasitic growth using CPRG as substrate pretreated with compound for 96 hrs followed by substrate addition and measured after 16 to 20 hrs by Spectrophotometric analysis; format: functional, organism-based
Leishmania amazonensis [4] = experiment: Antiparasitic activity against Leishmania amazonensis amastigote expressing Escherichia coli beta-galactosidase infected in mouse RAW264.7 cells assessed as reduction in parasitic growth using CPRG as substrate preincubated with compound for 24 hrs followed by substrate addition and measured after 2 to 6 hrs by Spectrophotometric analysis; format: functional, organism-based
Trypanosoma cruzi [5] = experiment: Antitrypanosomal activity against trypomastigote form of Trypanosoma cruzi Y assessed as induction of apoptosis at 2 times IC50 by measuring late apoptotic cells incubated for 24 hrs by Annexin V-FITC/7-AAD staining based flow cytometric analysis relative to control; format: functional
RAW264.7 [6] = experiment: Immunomodulatory activity in mouse RAW264.7 cells assessed as increase in IL-6 production at 1 to 4 times IC50 incubated for 24 to 144 hrs by flow cytometric analysis; format: functional, cell-based; conditions: time 24-144 hrs
Trypanosoma cruzi [7] = experiment: Antitrypanosomal activity against trypomastigote form of Trypanosoma cruzi Y assessed as induction of apoptosis at 2 times IC50 by measuring necrotic cells incubated for 24 hrs by Annexin V-FITC/7-AAD staining based flow cytometric analysis relative to control; format: functional
[8] = Acute toxicity in male Swiss-Webster mouse infected with Trypanosoma cruzi Y assessed as side effects at 5 to 200 mg/kg, po measured after 48 hrs; format: organism-based; conditions: in vivo, dose 5-200 mg/kg
[9] = Selectivity index, ratio of CC50 for mouse L929 cells to IC50 for antiparasitic activity against trypomastigote and amastigote form of Trypanosoma cruzi Tulahuen expressing Escherichia coli beta-galactosidase infected in mouse L929 cells; format: toxicity; conditions: read-out: Selectivity Index
Trypanosoma cruzi [10] = experiment: Antiparasitic activity against trypomastigote form of Trypanosoma cruzi Y assessed as appearance of swollen cells with cytoplasmic content leakage by Electron micrographic analysis; format: functional, organism-based
Trypanosoma cruzi [11] = experiment: Antitrypanosomal activity against trypomastigote form of Trypanosoma cruzi Y assessed as induction of apoptosis at 1 times IC50 by measuring early apoptosis incubated for 24 hrs by Annexin V-FITC/7-AAD staining based flow cytometric analysis relative to control; format: functional
[12] = Cytotoxicity against mouse RAW264.7 cells assessed as inhibition of cell viability incubated for 48 hrs by MTT assay; format: toxicity, cell-based
RAW264.7 [13] = experiment: Immunomodulatory activity in mouse RAW264.7 cells assessed as decrease in TNF production at 1 to 4 times IC50 incubated for 24 to 144 hrs by flow cytometric analysis; format: functional, cell-based; conditions: time 24-144 hrs
Trypanosoma cruzi [14] = experiment: Antitrypanosomal activity against trypomastigote form of Trypanosoma cruzi Y assessed as induction of apoptosis at 2 times IC50 by measuring early apoptosis incubated for 24 hrs by Annexin V-FITC/7-AAD staining based flow cytometric analysis relative to control; format: functional
[15] = Selectivity index, ratio of CC50 for mouse RAW264.7 cells to IC50 for antiparasitic activity against Leishmania infantum MHOM/MA/67/ITMAP-263 promastigote expressing Escherichia coli beta-galactosidase; format: toxicity; conditions: read-out: Selectivity Index
[16] = Toxicity in male Swiss mouse infected with Trypanosoma cruzi Y trypomastigotes assessed as mortality at 100 mg/kg/day, po pre-infected with parasite followed by compound addition and measured after 5 to 9 days relative to control; format: organism-based; conditions: in vivo, time 5-9 day; for Activity: po, 100 mg/kg
Trypanosoma cruzi [17] = experiment: Antiparasitic activity against trypomastigote form of Trypanosoma cruzi Y assessed as appearance of twisted bodies by Electron micrographic analysis; format: functional, organism-based
Trypanosoma cruzi [18] = experiment: Antiparasitic activity against trypomastigote form of Trypanosoma cruzi Y assessed as appearance of ruptured cells with cytoplasmic content leakage by Electron micrographic analysis; format: functional, organism-based
RAW264.7 [19] = experiment: Immunomodulatory activity in mouse RAW264.7 cells assessed as decrease in IL-10 production at 1 to 4 times IC50 incubated for 24 to 144 hrs by flow cytometric analysis; format: functional, cell-based; conditions: time 24-144 hrs
Leishmania infantum [20] = experiment: Antiparasitic activity against Leishmania infantum MHOM/MA/67/ITMAP-263 promastigote expressing Escherichia coli beta-galactosidase assessed as reduction in parasitic growth using CPRG as substrate preincubated with compound for 72 hrs followed by substrate addition and measured after 10 mins by Spectrophotometric analysis; format: functional, organism-based
[21] = Cytotoxicity against mouse L929 cells assessed as inhibition of cell viability incubated for 96 hrs by MTT assay; format: toxicity, cell-based
[22] = Selectivity index, ratio of CC50 for mouse RAW264.7 cells to IC50 for antiparasitic activity against Leishmania amazonensis WHOM/00 LTB 0016 promastigote expressing Escherichia coli beta-galactosidase; format: toxicity; conditions: read-out: Selectivity Index
Trypanosoma cruzi [23] = experiment: Antiparasitic activity against trypomastigote form of Trypanosoma cruzi Y assessed as presence of bubbles by Electron micrographic analysis; format: functional, organism-based
[24] = Acute toxicity in female Swiss-Webster mouse infected with Trypanosoma cruzi Y assessed as mortality at 5 to 200 mg/kg, po measured after 48 hrs; format: organism-based; conditions: in vivo, dose 5-200 mg/kg
Leishmania infantum [25] = experiment: Antiparasitic activity against Leishmania infantum amastigote expressing Escherichia coli beta-galactosidase infected in mouse RAW264.7 cells assessed as reduction in parasitic growth using CPRG as substrate preincubated with compound for 24 hrs followed by substrate addition and measured after 2 to 6 hrs by Spectrophotometric analysis; format: functional, organism-based; conditions: Leishmania infantum, RAW264.7; read-out: IC50
[26] = Acute toxicity in female Swiss-Webster mouse infected with Trypanosoma cruzi Y assessed as side effects at 5 to 200 mg/kg, po measured after 48 hrs; format: organism-based; conditions: in vivo, dose 5-200 mg/kg
Trypanosoma cruzi [27] = experiment: Antiparasitic activity against trypomastigote form of Trypanosoma cruzi Y assessed as appearance of filamentous structures scattered across the membrane by Electron micrographic analysis; format: functional, organism-based
RAW264.7 [28] = experiment: Immunomodulatory activity in mouse RAW264.7 cells assessed as nitric oxide formation at 1 to 4 times IC50 incubated for 72 hrs by Griess reagent based Spectrophotometric analysis; format: functional, cell-based
[29] = Selectivity index, ratio of CC50 for mouse RAW264.7 cells to IC50 for antiparasitic activity against Leishmania amazonensis amastigote expressing Escherichia coli beta-galactosidase infected in mouse RAW264.7 cells; format: toxicity; conditions: read-out: Selectivity Index
Trypanosoma cruzi [30] = experiment: Antiparasitic activity against trypomastigote form of Trypanosoma cruzi Tulahuen expressing Escherichia coli beta-galactosidase infected in mouse L929 cells assessed as reduction in parasitic growth using CPRG as substrate pretreated with compound for 96 hrs followed by substrate addition and measured after 16 to 20 hrs by Spectrophotometric analysis; format: functional, organism-based
[31] = Selectivity index, ratio of CC50 for mouse RAW264.7 cells to IC50 for antiparasitic activity against Leishmania infantum amastigote expressing Escherichia coli beta-galactosidase infected in mouse RAW264.7 cells; format: toxicity; conditions: read-out: Selectivity Index
[32] = Acute toxicity in male Swiss-Webster mouse infected with Trypanosoma cruzi Y assessed as mortality at 5 to 200 mg/kg, po measured after 48 hrs; format: organism-based; conditions: in vivo, dose 5-200 mg/kg
Trypanosoma cruzi [33] = experiment: Antiparasitic activity against trypomastigote form of Trypanosoma cruzi Y assessed as appearance of membrane rupture by Electron micrographic analysis; format: functional, organism-based

Row | SMILES | Activity (Cell membrane) | Activity (Mitochondrial membrane) | Activity (Trypanosoma cruzi [2]) | IC50 (Trypanosoma cruzi [3]) | Activity (Trypanosoma cruzi [5]) | Activity (RAW264.7 [6]) | Activity (Trypanosoma cruzi [7]) | Activity [8] | selectivity ratio [9] | Activity (Trypanosoma cruzi [10]) | Activity (Trypanosoma cruzi [11]) | CC50 at 48 h [12] | Activity (RAW264.7 [13]) | Activity (Trypanosoma cruzi [14]) | Activity [16] | Activity (Trypanosoma cruzi [17]) | Activity (Trypanosoma cruzi [18]) | Activity (RAW264.7 [19]) | CC50 at 96 h [21] | IC50 (Trypanosoma cruzi [30]) | also measured
1 | C/C(=N\N=c1\scc(-c2ccccc2)n1C)c1cccnc1 | Dose-dependent-effect | Active | inactive | 0.3 µM | 3.04% | Active | 2.36% | Non-toxic | 11.7 | Dose-dependent-effect | 29.4% | 5.5 µM | Active | 61.6% | Toxic | Dose-dependent-effect | Dose-dependent-effect | Active | 3.5 µM | 0.3 µM | IC50 (Leishmania amazonensis [1]; Leishmania amazonensis, WHOM/00 LTB 0016, read-out: IC50): 7.1 µM; IC50 (Leishmania amazonensis [4]; Leishmania amazonensis, RAW264.7, read-out: IC50): 9.4 µM; selectivity ratio [15]: 1.1; IC50 (Leishmania infantum [20]; Leishmania infantum, MHOM/MA/67/ITMAP-263, read-out: IC50): 5.2 µM; selectivity ratio [22]: 0.8; Activity (Trypanosoma cruzi [23]): Dose-dependent-effect; Activity [24]: Non-toxic; IC50 (Leishmania infantum [25]): 8.4 µM; Activity [26]: Non-toxic; Activity (Trypanosoma cruzi [27]): Dose-dependent-effect; Activity (RAW264.7 [28]): Active; selectivity ratio [29]: 0.6; selectivity ratio [31]: 0.7; Activity [32]: Non-toxic
2 | O=C(Cn1ccnc1[N+](=O)[O-])NCc1ccccc1 [BENZNIDAZOLE] |  |  | Active | 4.2 µM |  | Active |  |  | 494 |  |  |  |  |  |  | Active |  | Active | 2070 µM | 4.2 µM | mortality ([16]; male, Swiss, read-out: Activity): 100%; Activity (Trypanosoma cruzi [33]): Active
3 | C/C(=N\Nc1nc(-c2cccc([N+](=O)[O-])c2)cs1)c1cccnc1 | Dose-dependent-effect | Active | inactive | 0.4 µM | 9.39% | Active | 2.31% | Non-toxic | 284 | Dose-dependent-effect | 29.2% | 35.3 µM | inactive | 7.55% | Toxic |  | Dose-dependent-effect | Active | 114 µM | 0.4 µM | IC50 (Leishmania amazonensis [1]): Not_active; IC50 (Leishmania amazonensis [4]; raw264.7): Not_active; IC50 (Leishmania infantum [20]): Not_active; Activity (Trypanosoma cruzi [23]): Dose-dependent-effect; Activity [24]: Non-toxic; IC50 (Leishmania infantum [25]): 93.8 µM; Activity [26]: Non-toxic; Activity (Trypanosoma cruzi [27]): Dose-dependent-effect; Activity (RAW264.7 [28]): Active; selectivity ratio [31]: 0.4; Activity [32]: Non-toxic
